# System: EpidermFT™ Skin Model (EFT-400) full thickness skin cultures
# Assay: Affymetrix GeneChip HG U133 Plus 2.0 microarray global gene expression, agent-exposed vs untreated skin cultures
# Type: cell-based, human
# Settings: Salicin 0.5% vs Untreated Control, 24 hr treatment
smiles,measurement,value
"OCc1ccccc1O[C@@H]1O[C@H](CO)[C@@H](O)[C@H](O)[C@H]1O [Salicin, 2-(Hydroxymethyl)phenyl β-D-glucospyranoside]",Fold change ING1 (209808_x_at),2.572
same,Fold change IRAK2 (231779_at),2.734
same,Fold change IRAK3 (220034_at),2.411
same,Fold change ITPRIP (225582_at),2.421
same,Fold change JHDM1D (225142_at),2.825
same,Fold change KCNA3 (207237_at),2.308
same,Fold change KCNE4 (222379_at),2.686
same,Fold change KCNE4 (1552508_at),2.802
same,Fold change KCNJ8 (205303_at),2.493
same,Fold change KCNJ8 (205304_s_at),2.387
same,Fold change KLF15 (231015_at),2.338
same,Fold change KLHL29 (229310_at),2.719
same,Fold change LCP1 (208885_at),2.513
same,Fold change LOC285628 (232504_at),2.636
same,Fold change LOC440028 (1562606_a_at),2.7
same,Fold change LOC729222 /// PPFIBP1 (214375_at),2.426
same,Fold change LOC100128821 /// ZEB2 (235593_at),2.365
same,Fold change LOC100132244 (229438_at),2.299
same,Fold change LPAR1 (204036_at),2.391
same,Fold change LPAR1 (204037_at),2.425
same,Fold change LPAR1 (204038_s_at),2.732
same,Fold change LPPR4 (213496_at),2.406
same,Fold change LRCH2 (227688_at),2.318
same,Fold change LRRK2 (229584_at),2.314
same,Fold change MAGEA4 (214254_at),2.513
same,Fold change MAP3K4 (216199_s_at),2.654
same,Fold change MAP3K5 (203836_s_at),2.356
same,Fold change MAP9 (220145_at),2.4529
same,Fold change MASP1 (232224_at),2.402
same,Fold change MASP1 (235770_at),2.324
same,Fold change MESDC1 (223264_at),2.618
same,Fold change MGST1 (239001_at),2.428
same,Fold change MMD (203414_at),2.313
same,Fold change MTHFD2L (220346_at),2.597
same,Fold change MYO3B (1552578_a_at),2.338
same,Fold change NAMPT (217738_at),2.668
same,Fold change NEGR1 (1553194_at),2.339
same,Fold change NEXN (226103_at),2.323
same,Fold change NFKB2 (207535_s_at),2.67
same,Fold change NFKBIZ (223217_s_at),2.35
same,Fold change NOVA1 (205794_s_at),2.682
same,Fold change NR4A1 (202340_x_at),2.338
same,Fold change NRP2 (228699_at),2.306
same,Fold change OLAH (222945_x_at),2.586
same,Fold change PAPPA (201981_at),2.727
same,Fold change PAPPA (224940_s_at),2.664
same,Fold change PAPPA (224941_at),2.737
same,Fold change PAPPA (228128_x_at),2.482
same,Fold change PAPPA (1559400_s_at),2.415
same,Fold change PCDH7 (210941_at),2.333
same,Fold change PCSK1 (205825_at),2.59
same,Fold change PDE4D (211840_s_at),2.429
same,Fold change PEG10 (212092_at),2.813
same,Fold change PF4 (206390_x_at),2.652
same,Fold change PGM2L1 (229256_at),2.478
same,Fold change PHLDA1 (217996_at),2.515
same,Fold change PHTF1 (215285_s_at),2.498
same,Fold change PI15 (229947_at),2.619
same,Fold change PID1 (219093_at),2.447
same,Fold change PID1 (237867_s_at),2.743
same,Fold change PISD (202392_s_at),2.402
same,Fold change PITPNC1 (238649_at),2.621
same,Fold change PLAUR (211924_s_at),2.357
same,Fold change PLEKHA3 (223370_at),2.302
same,Fold change PTGER4 (204897_at),2.525
same,Fold change PTGES (207388_s_at),2.768
same,Fold change PTGES (210367_s_at),2.519
same,Fold change PTGS1 (205128_x_at),2.327
same,Fold change PTGS1 (215813_s_at),2.306
same,Fold change PTHLH (206300_s_at),2.505
same,Fold change PTHLH (211756_at),2.599
same,Fold change PTPRG (204944_at),2.299
same,Fold change QKI (228540_at),2.426
same,Fold change RAB3B (205924_at),2.634
same,Fold change RAB3B (227123_at),2.514
same,Fold change RAB23 (220955_x_at),2.644
same,Fold change RABGGTB (209180_at),2.305
same,Fold change RABGGTB (213704_at),2.423
same,Fold change RAI14 (202052_s_at),2.503
same,Fold change RASSF8 (235996_at),2.788
same,Fold change RGS3 (203823_at),2.462
same,Fold change RGS5 (209070_s_at),2.7
same,Fold change RGS12 (242079_at),2.358
same,Fold change RHOQ (212122_at),2.398
same,Fold change SEC24A (212902_at),2.298
same,Fold change SEMA3A (206805_at),2.505
same,Fold change SETDB2 (235339_at),2.377
same,Fold change SGK1 (201739_at),2.419
same,Fold change SH3RF3 (228461_at),2.389
same,Fold change SHOX (207570_at),2.312
same,Fold change SLC6A15 (232263_at),2.365
same,Fold change SLC11A2 (237106_at),2.533
same,Fold change SLC20A1 (230494_at),2.526
same,Fold change SLC43A3 (210692_s_at),2.457
same,Fold change SLFN11 (226743_at),2.451
same,Fold change SLIT2 (209897_s_at),2.499
same,Fold change SNHG12 (223774_at),2.339
same,Fold change SOCS2 (203373_at),2.46
same,Fold change SPON1 (209437_s_at),2.36
same,Fold change SPON1 (213993_at),2.499
same,Fold change SQSTM1 (213112_s_at),2.447
same,Fold change ST3GAL1 (208322_s_at),2.644
same,Fold change ST3GAL1 (225033_at),2.64
same,Fold change STK17B (205214_at),2.309
same,Fold change SULF1 (212344_at),2.665
same,Fold change TAF1A (206613_s_at),2.359
same,Fold change TAGLN (205547_s_at),2.426
same,Fold change TBC1D1 (212350_at),2.386
same,Fold change TBC1D1 (227945_at),2.566
same,Fold change TGM2 (201042_at),2.351
same,Fold change THBS1 (201108_s_at),2.756
same,Fold change THBS1 (239336_at),2.417
same,Fold change THRAP3 (242163_at),2.62
same,Fold change TMEM38B (222735_at),2.489
